Series [1] can be described thus: Intrinsic clearance in human liver microsomes at 1 uM measured for 15 mins in presence of NADPH regenerating system measured per mg protein by LC-MS/MS analysis. The series is classed as ADME, Microsome. Conditions: read-out: CLH. For orientation: Liver microsomes are a subcellular fraction often used to study metabolism.
Series [2] in a line: Drug metabolism in human liver microsomes assessed as dGSH trapping by measuring reactive metabolite formation at 10 uM measured after 60 mins in presence of dGSH and NADPH regenerating system by LC-MS/MS analysis. As to conditions: 1 h. In kind it is ADME, Microsome.
Series [3] in a line: Cytotoxicity against human HepG2 cells assessed as reduction in cell viability incubated for 72 hrs by CellTiter-Glo assay. (Cellular ATP, detected with luciferase, serves as a proxy for viable cell number.)
The target in series [4] is T1, C-C chemokine receptor type 6 (Homo sapiens, UniProt P51684).
T1 sequence (P51684 whole entry): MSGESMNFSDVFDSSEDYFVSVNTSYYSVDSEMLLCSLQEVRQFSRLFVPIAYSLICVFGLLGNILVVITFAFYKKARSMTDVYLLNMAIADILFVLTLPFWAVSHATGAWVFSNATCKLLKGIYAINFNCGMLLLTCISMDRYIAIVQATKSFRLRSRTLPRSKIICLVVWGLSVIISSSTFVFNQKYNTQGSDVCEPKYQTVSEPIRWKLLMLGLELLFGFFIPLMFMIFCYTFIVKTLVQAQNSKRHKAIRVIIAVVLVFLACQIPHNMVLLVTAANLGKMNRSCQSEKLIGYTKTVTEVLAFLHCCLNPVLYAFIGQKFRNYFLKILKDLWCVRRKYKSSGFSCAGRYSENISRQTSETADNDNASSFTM
Description: Antagonist activity at human CCR6 expressed in HEK293 cells assessed as inhibition of CCL20-stimulated intracellular calcium mobilization by Fluo-8-AM based FLIPR analysis.

The target of series [5] is Voltage-gated inwardly rectifying potassium channel KCNH2 (Homo sapiens, UniProt Q12809). Description: Inhibition of hERG expressed in CHO cells assessed as inhibition of channel current at holding potential of -80 mV by QPatch assay. (In general: The hERG channel carries a current that helps repolarise heart muscle cells.)
Chain of Voltage-gated inwardly rectifying potassium channel KCNH2 (Q12809 whole entry): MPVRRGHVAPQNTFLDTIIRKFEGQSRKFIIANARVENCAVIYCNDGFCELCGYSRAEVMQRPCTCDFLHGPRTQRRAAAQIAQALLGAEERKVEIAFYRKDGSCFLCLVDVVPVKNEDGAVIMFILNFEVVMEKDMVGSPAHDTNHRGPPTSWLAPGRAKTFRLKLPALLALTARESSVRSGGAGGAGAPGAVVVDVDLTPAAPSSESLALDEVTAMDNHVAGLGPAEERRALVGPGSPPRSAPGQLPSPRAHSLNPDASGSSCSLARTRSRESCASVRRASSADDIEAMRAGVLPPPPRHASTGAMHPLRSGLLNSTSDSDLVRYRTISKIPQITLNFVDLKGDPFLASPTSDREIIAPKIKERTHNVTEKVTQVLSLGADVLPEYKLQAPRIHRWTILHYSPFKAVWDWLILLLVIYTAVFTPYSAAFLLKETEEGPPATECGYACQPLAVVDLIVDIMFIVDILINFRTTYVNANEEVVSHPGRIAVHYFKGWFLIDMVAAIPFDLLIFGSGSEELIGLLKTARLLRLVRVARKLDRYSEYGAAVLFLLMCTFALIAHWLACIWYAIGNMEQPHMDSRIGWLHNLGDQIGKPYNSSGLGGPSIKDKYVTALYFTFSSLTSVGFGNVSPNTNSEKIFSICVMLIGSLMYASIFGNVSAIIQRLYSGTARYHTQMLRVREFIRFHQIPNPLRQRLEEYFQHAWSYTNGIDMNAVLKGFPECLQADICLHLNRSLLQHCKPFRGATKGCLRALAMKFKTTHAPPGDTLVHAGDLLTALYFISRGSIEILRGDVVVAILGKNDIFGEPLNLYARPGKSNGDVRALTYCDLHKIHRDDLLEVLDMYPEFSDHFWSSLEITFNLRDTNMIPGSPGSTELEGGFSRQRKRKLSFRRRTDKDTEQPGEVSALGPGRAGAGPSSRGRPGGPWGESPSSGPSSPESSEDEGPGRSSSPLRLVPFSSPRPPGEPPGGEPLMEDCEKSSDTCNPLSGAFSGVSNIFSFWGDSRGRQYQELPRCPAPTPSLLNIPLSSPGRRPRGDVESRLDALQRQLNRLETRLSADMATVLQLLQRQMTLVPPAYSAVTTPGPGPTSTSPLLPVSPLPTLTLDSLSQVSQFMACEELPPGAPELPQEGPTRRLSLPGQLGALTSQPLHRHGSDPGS
A short description of series [6]: Lipophilicity, LogD of the compound in 1-Octanol/PBS at pH 7.4 by miniaturized shake flask method.
Series [7] in a line: Dissociation constant, pKa of the compound by potentiometric titration based UV-Vis spectrophotometry.
Series [8] deals with HepaRG. Nature of the series: Cytotoxicity against human HepaRG cells assessed as leakage of intracellular LDH at 100 uM incubated for 24 hrs by spectrophotometry. In kind it is toxicity, cell-based.

Molecules are shown by their SMILES.

By IC50 is commonly meant the point on the concentration scale where inhibition reaches its midpoint. For orientation: logD means the decadic logarithm of the distribution of all forms, ionised or not, between an organic phase and buffer at a given pH. High values mean a more lipophilic compound, low ones a more hydrophilic compound. The pKa is the pH at which an ionisable group is half protonated.

As to `CC(C)c1ccc([C@](O)(c2cccc(-c3noc(C4CCOCC4)n3)c2)C2(C)CN(C)C2)cc1`, the microsomal CLint at […], 1 µM in series [1] came to 26 µL/min/mg. Also, in series [2], the Drug metabolism worked out at 167 pmol/mg/h.
For the compound `CC(C)c1ccc(C(O)(c2cccc(-c3nc(C4CCOCC4)no3)c2)C2(C)CN(C)C2)cc1` (single isomer, unassigned), in series [1], the microsomal CLint at […], 1 µM was determined as 68 µL/min/mg.
For the compound `CN1CC(C)(C(O)(c2ccc(OC(F)(F)F)cc2)c2cccc(N3CCCC3)c2)C1` (racemic), the IC50 at 72 h in series [3] was determined as 5 µM.
Consider `CC(C)COc1cccc(C(O)(c2ccc(OC(F)(F)F)cc2)C2(C)CN(C)C2)c1` (racemic), for which, in series [3], the IC50 at 72 h is 10 µM.
Regarding `CN1CC(C(O)(c2ccccc2)c2ccc(OC(F)(F)F)cc2)C1` (stereo unspecified), the IC50 in series [4] is 9.29 µM; in series [5] it was 0.52 µM.
In the case of `CN1CC(O)(C(O)(c2ccc(OC(F)(F)F)cc2)c2cccc(Cl)c2)C1` (racemic), the 50% inhibitory concentration (IC50) in series [4] was found to be 2.06 µM; in series [5], 1.9 µM. Besides, the logD in series [6] stood at 2.7. The pKa in series [7] was determined as 8.8.
In the case of `COc1cccc(C(O)(c2ccc(OC(F)(F)F)cc2)C2(C)CN(C)C2)c1` (racemic), the IC50 at 72 h in series [3] was above 25 µM. Besides, in series [5], the IC50 was determined as 0.22 µM.
In the case of `CC(C)c1ccc([C@](O)(c2cccc(-c3noc(CC(C)(C)O)n3)c2)C2(C)CN(C)C2)cc1`, the microsomal CLint at […], 1 µM in series [1] amounted to 20 µL/min/mg.
As for `CC(C)c1ccc([C@](O)(c2cncc(N3CC[C@H](O)C3)c2)C2(C)CN(C)C2)cc1`, the Drug metabolism in series [2] was determined as 504 pmol/mg/h.
Regarding `CN1CC(C#N)(C(O)(c2ccc(OC(F)(F)F)cc2)c2cccc(Cl)c2)C1` (racemic), the IC50 in series [4] stood at 0.763 µM. In series [7], this compound came in with a pKa of 6.4.
Turning to `CC(C)c1ccc(C(O)(c2cccc(N3CCCC3)n2)C2(C)CN(C)C2)cc1` (racemic), in series [4], the IC50 stood at 1.21 µM.
For `CN1CC(CO)(C(O)(c2ccc(OC(F)(F)F)cc2)c2cccc(Cl)c2)C1` (racemic), the IC50 in series [4] is 3.52 µM; in series [5], 0.56 µM. Also, the logD in series [6] is 2.1. In addition, in series [7], the pKa turned out to be 9.1.
Regarding `CN1CCC(C)(C(O)(c2ccccc2)c2ccc(OC(F)(F)F)cc2)C1` (stereo unspecified), the IC50 in series [4] came out at 1.44 µM.
On to `CC(C)c1ccc([C@](O)(c2cccc(-c3noc(C(C)(O)C(F)(F)F)n3)c2)C2(C)CN(C)C2)cc1` (stereo partly specified), for which the microsomal CLint at […], 1 µM in series [1] stood at 15 µL/min/mg.
Take `CN1CC(C)(C(O)(c2ccc(OC(F)(F)F)cc2)c2ccccc2Cl)C1` (racemic): the concentration for half-maximal inhibition (IC50) in series [4] worked out at 8.8 µM.
For the compound `CN1CC(C)(C(O)(c2ccc(OC(F)(F)F)cc2)c2cnnc(N3CCCC3)c2)C1` (racemic), in series [3], the IC50 at 72 h was above 25 µM.
Regarding `CC(C)c1ccc([C@](O)(c2cncc(N3CCOCC3)c2)C2(C)CN(C)C2)cc1`, the microsomal CLint at […], 1 µM in series [1] turned out to be 138 µL/min/mg. Also, the Drug metabolism in series [2] worked out at 1021 pmol/mg/h.
For the compound `CC(C)c1ccc([C@](O)(c2cccc(-c3noc(C4(O)CCC4)n3)c2)C2(C)CN(C)C2)cc1`, the microsomal CLint at […], 1 µM in series [1] was found to be 35 µL/min/mg.
`CC(C)c1ccc([C@](O)(c2cncc(N3CC4CC(C3)O4)c2)C2(C)CN(C)C2)cc1`: the microsomal CLint at […], 1 µM in series [1] was found to be 20 µL/min/mg. Further, in series [2], the Drug metabolism was below 100 pmol/mg/h.
With `CCOc1cncc(C(O)(c2ccc(OC(F)(F)F)cc2)C2(C)CN(C)C2)c1` (racemic), the half-maximal inhibitory concentration (IC50) at 72 h in series [3] was above 25 µM. The same compound returned a logD in series [6] of 1.9. Further, the Activity result in series [8] was “Non-Toxic”.
Consider `CCCC1(C(O)(c2ccccc2)c2ccc(OC(F)(F)F)cc2)CN(C)C1` (stereo unspecified), for which the half-maximal inhibitory concentration (IC50) in series [4] is above 20 µM.
Regarding `CC(C)c1ccc([C@](O)(c2cncc(N3CCCC3)c2)C2(C)CN(C)C2)cc1`, in series [2], the Drug metabolism was 162 pmol/mg/h.
Same read-out and setting: in the case of `CC(C)c1ccc([C@](O)(c2cncc(N3CC[C@](C)(O)C3)c2)C2(C)CN(C)C2)cc1` it was 392 pmol/mg/h.
`CC(=O)N1CC(C)(C(O)(c2ccccc2)c2ccc(OC(F)(F)F)cc2)C1` (stereo unspecified): the IC50 in series [4] and in series [5] was above 20 µM in each case.
In the case of `CN1CC(C(N)=O)(C(O)(c2ccc(OC(F)(F)F)cc2)c2cccc(Cl)c2)C1` (racemic), the IC50 in series [4] is 1.66 µM; in series [5] it was 3.3 µM. The compound also yielded a pKa in series [7] of 8.1.
On to `CN1CC(F)(C(O)(c2ccc(OC(F)(F)F)cc2)c2cccc(Cl)c2)C1` (racemic), for which, in series [6], the logD is above 4.1. In addition, in series [5], the IC50 turned out to be 0.19 µM. Also, the pKa in series [7] stood at 7.9.
Consider `CC(C)c1ccc([C@](O)(c2cncc(N3CC[C@@H](O)C3)c2)C2(C)CN(C)C2)cc1`, for which the Drug metabolism in series [2] turned out to be 541 pmol/mg/h.
As to `CN1CC(C)(C(O)(c2ccc(OC(F)(F)F)cc2)c2ccnc(N3CCCC3)c2)C1` (racemic), the IC50 at 72 h in series [3] turned out to be 9.2 µM.
Still for that read-out and setting: in the case of `CN1CC(C)(C(O)(c2ccc(Cl)cc2)c2ccc(OC(F)(F)F)cc2)C1` (racemic) it was 9.4 µM.
In the case of `CC(C)c1ccc([C@](O)(c2cncc(N3CC[C@H](C(C)(C)O)C3)c2)C2(C)CN(C)C2)cc1`, in series [2], the Drug metabolism is below 100 pmol/mg/h.
In the case of `COc1cncc(C(O)(c2ccc(OC(F)(F)F)cc2)C2(C)CN(C)C2)c1` (racemic), the IC50 at 72 h in series [3] is above 25 µM.
As for `CC(C)c1ccc([C@](O)(c2cncc(N3C[C@@H](F)[C@@H](F)C3)c2)C2(C)CN(C)C2)cc1`, the Drug metabolism in series [2] was below 100 pmol/mg/h.
`CC(C)c1ccc([C@](O)(c2cnnc(N3CCCC3)c2)C2(C)CN(C)C2)cc1`: the microsomal CLint at […], 1 µM in series [1] amounted to 475 µL/min/mg. Also, the Drug metabolism in series [2] worked out at 323 pmol/mg/h.
Turning to `CC(C)c1ccc([C@](O)(c2cncc(N3CCCC3=O)c2)C2(C)CN(C)C2)cc1`, the Drug metabolism in series [2] is below 100 pmol/mg/h.
For `CC(C)c1ccc([C@](O)(c2cnnc(N3CC4(CC4)CC3=O)c2)C2(C)CN(C)C2)cc1`, the microsomal CLint at […], 1 µM in series [1] was below 10 µL/min/mg. Moreover, the Drug metabolism in series [2] is below 100 pmol/mg/h.

Source of the values: ChEMBL document CHEMBL5506042, “Discovery of the Clinical Candidate IDOR-1117-2520: A Potent and Selective Antagonist of CCR6 for Autoimmune Diseases” (J Med Chem, 2024).
